Here are results for 55 compounds from patent US8778966B2, “Quinolinone derivatives as PARP and tank inhibitors” (Janssen Pharmaceutica, NV, priority 2007, dated 2014).

Where only a bound is given, the exact number is not on record here.

One assay addresses T1, Human PARP-1 enzyme (Homo sapiens, UniProt P09874).
T1 construct: purchased Trevigen
Description: In vitro Scintillation Proximity Assay (SPA) for PARP-1 inhibitory activity. It counts as biochemical. Particulars: read-out: in vitro SPA assay PARP-1 pIC50 (converted). The essentials: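 SPA assay: nicked-DNA-activated PARP-1 (0.1–0.2 μg/ml) ADP-ribosylates biotinylated histones (2 μg/ml) using [3H]-NAD+, 20 min at RT in Tris pH 8/DTT/MgCl2, stopped with 2 mM NAD+. Blank-subtracted cpm expressed as % control; IC50 by linear interpolation, reported as pIC50 (10−5 to 3×10−9 M tested).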
Background: In a scintillation proximity assay essentially only radioactivity close to the scintillant gives light.

The test system of a further assay is PC3 cells. Description: EB1 Comet (microtubule disruption) assay. Particulars: Homo sapiens, PC-3, 1 h, 1 hour treatment, read-out: EB1 pLAC (converted). It is filed as cell-based, human. The essentials: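 Readout is loss of Eb1 plus-end foci, scored by immunofluorescence microscopy, in PC3 cells after 1 h compound treatment at 37 °C with 0.6% final DMSO. LAC is defined as the lowest concentration leaving at least 50% of cells without Eb1 foci.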

T1 sequence (P09874 whole entry): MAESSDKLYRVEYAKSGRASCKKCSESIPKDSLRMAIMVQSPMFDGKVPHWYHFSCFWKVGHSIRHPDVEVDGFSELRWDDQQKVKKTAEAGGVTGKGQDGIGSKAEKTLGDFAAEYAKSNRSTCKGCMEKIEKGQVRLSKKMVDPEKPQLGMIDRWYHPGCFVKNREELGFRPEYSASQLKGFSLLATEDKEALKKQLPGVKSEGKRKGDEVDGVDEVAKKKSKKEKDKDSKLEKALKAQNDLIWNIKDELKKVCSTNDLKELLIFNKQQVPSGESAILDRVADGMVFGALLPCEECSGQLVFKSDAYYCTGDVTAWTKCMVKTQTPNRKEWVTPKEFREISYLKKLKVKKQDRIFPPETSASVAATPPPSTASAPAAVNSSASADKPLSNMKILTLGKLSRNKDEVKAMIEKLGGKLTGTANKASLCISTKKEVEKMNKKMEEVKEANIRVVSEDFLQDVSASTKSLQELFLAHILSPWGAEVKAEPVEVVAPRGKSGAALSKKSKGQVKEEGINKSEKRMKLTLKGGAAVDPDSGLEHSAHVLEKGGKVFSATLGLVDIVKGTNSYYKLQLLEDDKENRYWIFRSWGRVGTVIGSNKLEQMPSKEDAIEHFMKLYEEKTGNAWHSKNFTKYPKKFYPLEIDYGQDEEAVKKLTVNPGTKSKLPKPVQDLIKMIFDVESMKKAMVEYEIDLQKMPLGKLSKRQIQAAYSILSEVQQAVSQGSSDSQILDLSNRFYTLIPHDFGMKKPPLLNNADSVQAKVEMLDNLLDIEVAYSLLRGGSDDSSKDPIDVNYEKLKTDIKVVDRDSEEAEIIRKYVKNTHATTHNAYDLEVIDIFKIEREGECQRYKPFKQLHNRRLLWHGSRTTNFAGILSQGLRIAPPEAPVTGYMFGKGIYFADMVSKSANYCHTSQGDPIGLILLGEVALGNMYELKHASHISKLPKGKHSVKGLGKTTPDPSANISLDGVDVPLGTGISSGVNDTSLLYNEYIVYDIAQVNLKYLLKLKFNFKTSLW

`CCOc1cccc(CC(C)(C#N)c2ccc3cc(CC)c(=O)[nH]c3c2)c1` (stereo not drawn) [Compound 285]: the IC50 at Human PARP-1 enzyme is 0.0501 µM. The minimal effective concentration with PC3 cells is 0.316 µM.

With `CCc1cc2ccc(C(C)(C#N)Cc3cccc(NC)n3)cc2[nH]c1=O` (stereo not drawn) [Compound 339], at Human PARP-1 enzyme, the IC50 was 0.0398 µM. On to `CCc1cc2ccc(C(C)(C#N)Cc3ccc(F)c(F)c3)cc2[nH]c1=O` (stereo not drawn) [Compound 281], for which the IC50 on Human PARP-1 enzyme was 0.0398 µM. Moreover, the minimal effective concentration in the assay on PC3 cells is 0.316 µM. The like results for `Cc1cc2ccc([C@](C)(C#N)C3CCc4ccccc43)cc2[nH]c1=O` (single isomer, unassigned) [Compound 386] were, in that order, 0.126 µM and 0.316 µM.

Regarding `CCc1cc2ccc(C(C)(C#N)Cc3cc(C#N)nc(C)n3)cc2[nH]c1=O` (stereo not drawn) [Compound 319], on Human PARP-1 enzyme, the IC50 was 0.2 µM. In the assay with PC3 cells, the minimal effective concentration is 1 µM.

For `CCc1cc2ccc(C(C)(C#N)Cc3cccc(C#N)[n+]3[O-])cc2[nH]c1=O` (stereo not drawn) [Compound 228], the IC50 on Human PARP-1 enzyme was 0.0501 µM. For the same compound, the minimal effective concentration in the assay on PC3 cells was 0.562 µM. For `CCc1cc2ccc(C(C)(C#N)Cc3cccc(C(=N)NO)c3)cc2[nH]c1=O` (stereo not drawn) [Compound 186], in that order: 0.0398 µM and 3.16 µM.

With `CCc1cc2c(OC)cc(C(C)(C#N)Cc3nc(OC)cc(OC)n3)cc2[nH]c1=O` (single isomer, unassigned) [Compound 230], the IC50 on Human PARP-1 enzyme is 0.0631 µM. Further, in the assay with PC3 cells, the minimal effective concentration was 1 µM. For `CCc1cc2ccc(C(C)(C#N)Cc3c4ccccc4nn3C)cc2[nH]c1=O` (stereo not drawn) [Compound 347], the IC50 on Human PARP-1 enzyme was 0.158 µM. Further, the minimal effective concentration in the assay on PC3 cells was 0.562 µM. On to `CCc1cc2ccc(C(C)(C#N)Cc3nc(Cl)cc(OC)n3)cc2[nH]c1=O` (stereo not drawn) [Compound 202], for which, on Human PARP-1 enzyme, the IC50 is 0.0794 µM. The same measure, in the same setting: for `CCc1cc2ccc(C(C)(C#N)Cc3nc(C#N)cc(OC)n3)cc2[nH]c1=O` (single isomer, unassigned) [Compound 204] the value was 0.0398 µM. As for `CCc1cc2ccc(C(C)(C#N)Cc3cc(Cl)nc(OC)c3)cc2[nH]c1=O` (stereo not drawn) [Compound 351], at Human PARP-1 enzyme, the IC50 was 0.0631 µM. The minimal effective concentration in the assay on PC3 cells was 0.1 µM.

As for `CCc1cc2ccc(C(C)(C#N)CN3CCN(c4ccccn4)CC3)cc2[nH]c1=O` (stereo not drawn) [Compound 233], the IC50 at Human PARP-1 enzyme is 0.0501 µM. Also, the minimal effective concentration in the assay with PC3 cells was 1 µM.

As for `C#CCOc1cccc(CC(C)(C#N)c2ccc3cc(CC)c(=O)[nH]c3c2)c1` (stereo not drawn) [Compound 196], the IC50 at Human PARP-1 enzyme is 0.0251 µM.

For the compound `CCc1cc2ccc(C(C)(C#N)Cc3ccc4c(c3)OC(F)(F)O4)cc2[nH]c1=O` (stereo not drawn) [Compound 346], on Human PARP-1 enzyme, the IC50 was 0.0794 µM. On the same count and under the same terms, under `CCc1cc2ccc(C(C)(C#N)Cc3cc(C(C)C)ccc3OC)cc2[nH]c1=O` (stereo not drawn) [Compound 288] stands 0.158 µM.

For the compound `Cc1cc2ccc([C@@](C)(C#N)C3CCc4ccccc43)cc2[nH]c1=O` (single isomer, unassigned) [Compound 385], the IC50 at Human PARP-1 enzyme was 0.1 µM. Also, in the assay with PC3 cells, the minimal effective concentration was 10 µM. For the compound `CCc1cc2ccc([C@@](C)(C#N)Cc3cccc(C#CCO)c3)cc2[nH]c1=O` (single isomer, unassigned) [Compound 295], the IC50 on Human PARP-1 enzyme was 0.0251 µM.

For the compound `CCc1cc2ccc(C(C)(C#N)Cc3cc(C#N)nc(N(C)C)c3)cc2[nH]c1=O` (stereo not drawn) [Compound 325], the IC50 at Human PARP-1 enzyme is 0.0794 µM. Besides, the minimal effective concentration in the assay on PC3 cells was 3.16 µM. For `Cc1cc2ccc(C(C)(C#N)Cc3cccc(OCC4CCOCC4)c3)cc2[nH]c1=O` (stereo not drawn) [Compound 261], at Human PARP-1 enzyme, the IC50 is 0.1 µM. Besides, the minimal effective concentration in the assay with PC3 cells is 1.78 µM.

For `CCc1cc2ccc(C(C)(C#N)Cc3cccc4[nH]ccc34)cc2[nH]c1=O` (stereo not drawn) [Compound 379], the IC50 on Human PARP-1 enzyme is 0.0251 µM. On to `CCc1cc2ccc(C(C)(C#N)Cc3cccc(N4CCC(N(C)C)C4)n3)cc2[nH]c1=O` (stereo not drawn) [Compound 209], for which the IC50 at Human PARP-1 enzyme was 0.0501 µM. Further, the minimal effective concentration in the assay on PC3 cells was 0.316 µM. Regarding `CCc1cc2ccc(C(C)(C#N)CN3CCC(c4ccccc4)CC3)cc2[nH]c1=O` (stereo not drawn) [Compound 375], the IC50 on Human PARP-1 enzyme was 0.158 µM. Further, the minimal effective concentration with PC3 cells was 0.316 µM. The like results for `Cc1cc2ccc(C(C)(C#N)Cc3cccc(I)c3)cc2[nH]c1=O` (stereo not drawn) [Compound 256] were, in that order, 0.126 µM and 0.316 µM.

Regarding `Cc1cc2ccc(C(C)(C#N)C3CCCc4ccccc43)cc2[nH]c1=O` (stereo not drawn) [Compound 404], the IC50 at Human PARP-1 enzyme is 0.2 µM. Also, in the assay with PC3 cells, the minimal effective concentration was 0.562 µM. The like results for `CCc1cc2ccc(C(C)(C#N)Cc3cc(OC)ccc3F)cc2[nH]c1=O` (stereo not drawn) [Compound 171] were, in that order, 0.02 µM and 0.1 µM.

Regarding `CCc1cc2ccc([C@](C)(C#N)Cc3cccc(/C=C/S(C)(=O)=O)c3)cc2[nH]c1=O` (single isomer, unassigned) [Compound 291], at Human PARP-1 enzyme, the IC50 was 0.0251 µM.

On to `CCCC(C#N)(Cc1ccccc1)c1ccc2cc(CC)c(=O)[nH]c2c1` (stereo not drawn) [Compound 31], for which the IC50 on Human PARP-1 enzyme was 2 µM. In the assay on PC3 cells, the minimal effective concentration was 10 µM. Regarding `CCc1cc2ccc(C(C)(C#N)Cc3cc(N(C)C)nc(N(C)C)n3)cc2[nH]c1=O` (stereo not drawn) [Compound 320], the IC50 at Human PARP-1 enzyme was 0.2 µM. Besides, the minimal effective concentration in the assay with PC3 cells is 0.316 µM. For `CCc1cc2ccc(C(C)(C#N)Cc3cccc(C#Cc4cncn4C)n3)cc2[nH]c1=O` (stereo not drawn) [Compound 217], in that order: 0.0794 µM and 1 µM. For `CCc1cc2ccc(C(C)(C#N)CNCc3ccc(C#N)cc3)cc2[nH]c1=O` (stereo not drawn) [Compound 302], in that order: 0.126 µM and 1 µM. For the compound `CCc1cc2ccc(C(C)(C#N)COCc3ccccc3)cc2[nH]c1=O` (stereo not drawn) [Compound 197], the IC50 on Human PARP-1 enzyme was 0.1 µM. For the compound `CCc1cc2ccc(C(C)(C#N)Cc3cccc(OC)c3F)cc2[nH]c1=O` (stereo not drawn) [Compound 286], the IC50 at Human PARP-1 enzyme was 0.0251 µM. Moreover, the minimal effective concentration in the assay on PC3 cells was 0.562 µM. As to `CCc1cc2ccc(C(C)(C#N)Cc3cc(N(C)C)nc(C#N)n3)cc2[nH]c1=O` (stereo not drawn) [Compound 317], the IC50 at Human PARP-1 enzyme was 0.0794 µM. Further, the minimal effective concentration in the assay on PC3 cells is 1 µM. The like results for `CCc1cc2ccc(C(C)(C#N)CN(C)Cc3ccc(C#N)cc3)cc2[nH]c1=O` (stereo not drawn) [Compound 300] were, in that order, 0.158 µM and 0.1 µM.

Take `CCc1cc2ccc([C@](C)(C#N)Cc3cc(OC)nc(C)n3)cc2[nH]c1=O` (single isomer, unassigned) [Compound 362]: the IC50 on Human PARP-1 enzyme was 0.631 µM. For `CCc1cc2ccc(C(C)(C#N)Cc3cc(N(C)C)nc(OC)n3)cc2[nH]c1=O` (stereo not drawn) [Compound 354], the IC50 at Human PARP-1 enzyme is 0.0794 µM. In addition, in the assay on PC3 cells, the minimal effective concentration is 1 µM. For `CCc1cc2ccc(C(C)(C#N)Cc3cccc(OCCS(C)(=O)=O)c3)cc2[nH]c1=O` (stereo not drawn) [Compound 201], in that order: 0.0251 µM and 0.562 µM.

Take `CCc1cc2ccc([C@@](C)(C#N)Cc3cc(OC)nc(C)n3)cc2[nH]c1=O` (single isomer, unassigned) [Compound 361]: the IC50 on Human PARP-1 enzyme was 0.126 µM.

On to `CCc1cc2ccc(C(C)(C#N)Cc3nc(C#N)cc(N(C)C)n3)cc2[nH]c1=O` (stereo not drawn) [Compound 318], for which, on Human PARP-1 enzyme, the IC50 was 0.0794 µM. For the same compound, in the assay on PC3 cells, the minimal effective concentration was 0.316 µM.

Regarding `CCc1cc2ccc(C(C#N)(Cc3ccccc3)c3ccc(C#N)cc3)cc2[nH]c1=O` (stereo not drawn) [Compound 26], the IC50 on Human PARP-1 enzyme is 1.58 µM. Further, the minimal effective concentration in the assay on PC3 cells is greater than 10 µM.

Regarding `CCc1cc2ccc(C(C)(C#N)Cc3cc(Br)cc4c3OCC4)cc2[nH]c1=O` (stereo not drawn) [Compound 378], the IC50 at Human PARP-1 enzyme was 0.0794 µM. For the same compound, the minimal effective concentration in the assay on PC3 cells was 0.316 µM. For the compound `CCc1cc2ccc(C(C)(C#N)Cc3cccc(/C=N/O)c3)cc2[nH]c1=O` (stereo not drawn) [Compound 299], on Human PARP-1 enzyme, the IC50 is 0.0316 µM. In the assay with PC3 cells, the minimal effective concentration is 1 µM. The like results for `CCc1cc2ccc(C(C)(C#N)Cc3cccc4c3CCN4)cc2[nH]c1=O` (stereo not drawn) [Compound 237] were, in that order, 0.0251 µM and 3.16 µM. For `CCc1cc2ccc(C(C#N)(Cc3ccccc3)C(C)C)cc2[nH]c1=O` (stereo not drawn) [Compound 30], in that order: 3.16 µM and 3.16 µM. As for `CCc1cc2ccc(C(C)(C#N)Cc3cccc(-c4ccc[nH]4)c3)cc2[nH]c1=O` (stereo not drawn) [Compound 176], on Human PARP-1 enzyme, the IC50 is 0.0501 µM. Further, the minimal effective concentration with PC3 cells was 1 µM. For `Cc1cc2ccc([C@](C)(C#N)[C@H]3CCc4ccccc43)cc2[nH]c1=O` [Compound 387], in that order: 0.2 µM and 3.16 µM. Turning to `CCc1cc2ccc([C@](C)(C#N)CCOc3ccc(C#N)cc3)cc2[nH]c1=O` (single isomer, unassigned) [Compound 275], the IC50 on Human PARP-1 enzyme is 0.0501 µM. Same read-out and setting: under `CCc1cc2ccc(C(C)(C#N)Cc3nc(OC)cc(N(C)C)n3)cc2[nH]c1=O` (stereo not drawn) [Compound 355] stands 0.0501 µM; under `CCc1cc2ccc(C(C)(C#N)Cc3cccc(C(=O)OC(C)C)c3)cc2[nH]c1=O` (stereo not drawn) [Compound 255], 0.0501 µM.

`CCc1cc2ccc([C@](C)(C#N)Cc3cccc(C#CCO)c3)cc2[nH]c1=O` (single isomer, unassigned) [Compound 296]: the IC50 on Human PARP-1 enzyme is 0.0316 µM. Still for that read-out and setting: for `CCc1cc2ccc(C(C)(C#N)Cc3cc(Cl)nc(N(C)C)c3)cc2[nH]c1=O` (stereo not drawn) [Compound 323] the value was 0.0794 µM. `Cc1cc2ccc(C(C)(C#N)Cc3cccc(/C=C/CCO)c3)cc2[nH]c1=O` (stereo not drawn) [Compound 409]: on Human PARP-1 enzyme, the IC50 is 0.1 µM.

`Cc1nc(-c2ccccc2)sc1CC(C)(C#N)c1ccc2cc(C)c(=O)[nH]c2c1` (stereo not drawn) [Compound 235]: the IC50 at Human PARP-1 enzyme is 0.126 µM.

For the compound `CCc1cc2ccc(C(C)(C#N)Cc3cc(Br)cc(N(C)C)c3)cc2[nH]c1=O` (stereo not drawn) [Compound 260], the IC50 on Human PARP-1 enzyme is 0.0794 µM.
